Results as given in US8389568B2, “IDO inhibitors and methods of use thereof” (Lankenau Institute for Medical Research, priority 2007, dated 2013).

Molecular target: human IDO (Homo sapiens, UniProt P14902)
Test: IDO inhibition enzyme assay (N-formylkynurenine/kynurenine formation read at 490 nm)
Assay type: biochemical
Conditions: not given
Protocol: Compounds of the instant invention were analyzed for inhibition of human IDO. The assay was conducted according to a literature protocol, with ascorbic acid and methylene blue serving the role of reductant (Littlejohn et al. (2000) Protein Expression and Purification, 19:22-29; Sono et al. (1989) J. Biol. Chem., 264:1616-1622). […] The enzyme assay monitored for formation of N-formylkynurenine by hydrolyzing the formyl group and spectrophotometrically analyzing for the conjugated imine generated from kynurenine and 4-(dimethylamino) benzaldehyde.
Specifically, the inhibition assays were performed in a 96-well microtiter plate as previously described with a small modification (Littlejohn et al. (2000) Prot. Expr. Purif., 19:22-29). Briefly, the reaction mixture contained 50 mM potassium phosphate buffer (pH 6.5), 40 mM ascorbic acid, 400 μg/ml catalase, 20 μM methylene blue and purified recombinant IDO(1) optimized based on its activity. The reaction mixture was added to the substrate, L-tryptophan (L-Trp), and the inhibitor. The L-Trp was serially diluted from 200 to 25 μM and the inhibitors were tested at two concentrations, 200 and 400 μM. The reaction was carried out at 37° C. for 60 minutes and stopped by adding 30% (w/v) trichloroacetic acid. The plate was heated at 65° C. for 15 minutes to convert formylkynurenine to kynurenine and then was spun at 6000 g for 5 minutes. Finally 100 μl supernatant from each well was transferred to a new 96 well plate and mixed with 2% (w/v) p-dimethylamino-benzaldehyde in acetic acid. The yellow color generated from the reaction with kynurenine was measured at 490 nm using a Synergy HT microtiter plate reader (Bio-Tek, Winooski, Vt.). The data was analyzed using Graph Pad Prism 4 software (Graph Pad Software Inc., San Diego, Calif.).

Chain of human IDO (P14902 whole entry): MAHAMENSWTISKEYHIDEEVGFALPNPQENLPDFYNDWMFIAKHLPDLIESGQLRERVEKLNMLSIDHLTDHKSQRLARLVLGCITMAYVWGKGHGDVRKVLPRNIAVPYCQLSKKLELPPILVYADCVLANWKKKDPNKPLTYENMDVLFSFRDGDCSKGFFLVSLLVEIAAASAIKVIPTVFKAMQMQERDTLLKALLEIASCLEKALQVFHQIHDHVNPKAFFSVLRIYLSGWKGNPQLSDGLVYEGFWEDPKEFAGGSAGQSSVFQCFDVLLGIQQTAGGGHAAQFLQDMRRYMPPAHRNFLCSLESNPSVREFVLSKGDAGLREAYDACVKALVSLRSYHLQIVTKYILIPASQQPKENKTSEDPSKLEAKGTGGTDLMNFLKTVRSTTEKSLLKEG

Row | Structure (SMILES) | IC50 [nM]
1 | CC1(C)C=CC2=C(O1)C(=O)c1ccccc1C2=O [Compound 8, 2,2-dimethyl-2H-benzo[g]chromene-5,10-dione] | 155

Same assay, conditions: purified recombinant IDO(1); L-Trp substrate; ascorbic acid/methylene blue reductant, catalase; pH 6.5; 37° C. for 60 minutes; read-out: IC50

Row | IC50 [nM] | Structure (SMILES)
2 | 70 | CCCCN[C@H]1C2=C(OC(C)(C)[C@@H]1O)C(=O)c1ccccc1C2=O (stereo in doubt) [Compound 20, 4-(butylamino)-3-hydroxy-2,2-dimethyl-3,4-dihydro-2H-benzo[g]chromene-5,10-dione]
3 | 1500 | CC1(C)OC2=C(C(=O)c3ccccc3C2=O)[C@H](O)[C@@H]1O [Compound 12, (3S,4S)-3,4-dihydroxy-2,2-dimethyl-3,4-dihydro-2H benzo[g]chromene-5,10-dione]
4 | 290 | CC1(C)OC2=C(C(=O)c3ccccc3C2=O)[C@@H](O)[C@@H]1Br (relative stereo) [Compound 27]
5 | 161 | COC(=O)C1(C)C=CC2=C(O1)C(=O)c1ccccc1C2=O (centres unmarked) [Compound 29, methyl 2-methyl-5,10-dioxo-5,10-dihydro-2H-benzo[g]chromene-2-carboxylate]
6 | 976 | CO[C@H]1C2=C(OC(C)(C)[C@H]1O)C(=O)c1ccccc1C2=O (stereo in doubt) [Compound 21, 3-hydroxy-4-methoxy-2,2-dimethyl-3,4-dihydro-2H-benzo[g]chromene-5,10-dione]
7 | 160 | CCCCN[C@H]1C2=C(OC(C)(C)[C@H]1O)C(=O)c1ccccc1C2=O (stereo in doubt) [Compound 19, 4-(butylamino)-3-hydroxy-2,2-dimethyl-3,4-dihydro-2H-benzo[g]chromene-5,10-dione]
8 | 58 | CC1(C)C=CC2=C(O1)C(=O)c1cccc(O)c1C2=O [Compound 28, 6-hydroxy-2,2-dimethyl-2H-benzo[g]chromene-5,10-dione]
9 | 183 | C=CCN[C@H]1C2=C(OC(C)(C)[C@H]1O)C(=O)c1ccccc1C2=O (stereo in doubt) [Compound 17, 4-(allylamino)-3-hydroxy-2,2-dimethyl-3,4-dihydro-2H-benzo[g]chromene-5,10-dione]
10 | 3300 | CC1(C)OC2=C(C(=O)c3ccccc3C2=O)C2OC21 (centres unmarked) [Compound 14, 2,2-dimethyl-9a,9b-dihydro-1aH-benzo[g]oxireno[2,3-c]chromene-4,9(2H,3aH)-dione]
11 | 3960 | CO[C@H]1C2=C(OC(C)(C)[C@@H]1O)C(=O)c1ccccc1C2=O (stereo in doubt) [Compound 22, 3-hydroxy-4-methoxy-2,2-dimethyl-3,4-dihydro-2H-benzo[g]chromene-5,10-dione]
